Test results reported in article PMC4057422, “Apoptotic Death of Prostate Cancer Cells by a Gonadotropin-Releasing Hormone-II Antagonist” (PLoS ONE, 2014).
Read-outs that look alike come from different tables or passages of the source. Square brackets hold non-standard residues; d marks the D form. Ends that are not written are not given here. Peptide text beside a SMILES is read from it. dPhe(4-Cl) = N[C@H](Cc1ccc(Cl)cc1)C(=O)O; d2Nal = N[C@H](Cc1ccc2ccccc2c1)C(=O)O; dCit = NC(=O)NCCC[C@@H](N)C(=O)O; d3Pal = N[C@H](Cc1cccnc1)C(=O)O

What was measured:
[1] = target: T1, green monkey GnRHR-II (gmGnRHR-II) (Chlorocebus aethiops, UniProt Q95MH6); assay: Reporter gene assay (SRE-luc), antagonism of GnRH-II at gmGnRHR-II; assay type: cell-based
T1 construct: expressed in transfected cells; host or cells: CV-1 cells
T1 sequence (Q95MH6 1-379): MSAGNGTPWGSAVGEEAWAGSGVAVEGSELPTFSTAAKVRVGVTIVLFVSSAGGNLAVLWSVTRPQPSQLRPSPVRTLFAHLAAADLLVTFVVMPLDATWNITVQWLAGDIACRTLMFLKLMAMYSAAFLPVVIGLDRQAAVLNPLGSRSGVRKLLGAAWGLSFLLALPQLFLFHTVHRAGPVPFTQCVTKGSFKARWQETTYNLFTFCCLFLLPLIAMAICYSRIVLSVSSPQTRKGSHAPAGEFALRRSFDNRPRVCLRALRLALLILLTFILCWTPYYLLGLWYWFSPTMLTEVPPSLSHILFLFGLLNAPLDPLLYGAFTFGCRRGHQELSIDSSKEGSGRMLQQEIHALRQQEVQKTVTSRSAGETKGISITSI
Method: (§1) CV-1 Cells were culture overnight in 24-well plates and subsequently transfected with liposome complex containing pGL3/SRE-luc plasmids with bull frog GnRHR-II (bfGnRHR-II) or green monkey GnRHR-II (gmGnRHR-II). Another 48 h later, cells treated with GnRH-II (1 nM for bfGnRHR-II, 10 nM gmGnRHR-II) and different concentration of SN09-2 or Trp-1 for 6 h were washed with PBS and solublized with lysis buffer. Luciferase activity of cell extracts was determined using the standard luciferase assay system from BioTek Instrument, Inc. (Winooski, VT). To determine transfection efficiency, luciferase activities were normalized to the β-gal activity. All data are calculated from at least three independent experiments normalized to untreated groups.

[2] = system: PC3 cells; assay type: cell-based, human; conditions: for growth inhibition of PC3 cells: 10 µM
Method: (§2) Cells were seeded in 12-well plates in triplicate (1×10^4 cells/well). After 24 h, cells were treated with the indicated concentrations of GnRH-II antagonists solubilized in 0.1% DMSO every 24 h for the indicated number of days. Then, cells were washed with phosphate-buffered saline (PBS), dissociated with trypsin/EDTA, and re-suspended in 500 µl complete growth media. Trypan blue (0.4%) dye-excluding cells were counted under an inverted microscope (Olympus, Tokyo, Japan).

[3] = Tolerability in nude mice (histology, blood chemistry, injection site); assay type: in vivo, male athymic nude mice (BALB/c-nu)
Method: Six-week-old male athymic nude mice (BALB/c-nu) were obtained from Harlan (Houston, TX). Mice were housed under specific pathogen-free conditions in an individually ventilated caging system. All experimental procedures were performed after receiving approval from the Institutional Animal Care and Use Committee of Clinical Research Institute in Seoul National University Hospital. PC3 cells (6×10^6) were injected into the right flank of the mice. Ten days after cell injection, tumors with volumes of around 20–25 mm^3 developed in most mice; tumor volumes were measured every day. Tumor volumes were determined by two perpendicular dimensions [length (L) and width (W)] and the height (H), measured using Vernier calipers (the formula is V = (π/6) × (W×L×H). From this time, SN09-2 (acetic acid form) dissolved in 5% N,N-dimethylacetamide (DMA), 10% glycerol, and 85% distilled water which is biocompatible solvent were subcutaneously injected into the mice for 25 consecutive days. The tumor size in each mouse was measured every day. Six to seven mice were used for each experimental group.

[4] = Dissolution in solvents / at the injection site; assay type: physicochemical
[5] = system: DU145 cells; assay: Cell viability assay, DU145; assay type: cell-based, human; conditions: 10 µM, 5% serum, 3 days
Method: as §2

[6] = target: bull frog GnRHR-II (bfGnRHR-II) (Aquarana catesbeiana, UniProt Q9DE60); assay: Reporter gene assay (SRE-luc), antagonism of GnRH-II at bfGnRHR-II; assay type: cell-based; conditions: CV-1 cells, GnRH-II 1 nM, antagonist 6 h, luciferase normalized to β-gal, at least three independent experiments
Sequence of bull frog GnRHR-II (bfGnRHR-II) (Q9DE60 entry or part of it): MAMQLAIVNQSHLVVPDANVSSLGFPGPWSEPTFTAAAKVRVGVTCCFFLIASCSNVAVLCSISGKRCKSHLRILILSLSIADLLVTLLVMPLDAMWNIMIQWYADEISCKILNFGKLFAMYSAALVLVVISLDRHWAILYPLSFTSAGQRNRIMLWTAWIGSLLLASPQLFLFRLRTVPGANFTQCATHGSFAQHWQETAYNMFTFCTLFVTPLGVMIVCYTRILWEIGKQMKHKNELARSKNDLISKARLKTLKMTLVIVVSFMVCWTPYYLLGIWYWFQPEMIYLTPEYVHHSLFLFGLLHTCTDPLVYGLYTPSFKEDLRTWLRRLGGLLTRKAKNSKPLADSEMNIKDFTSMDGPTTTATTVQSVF
Method: as §1

[7] = system: prostate cancer cells; conditions: ref [28]; cited from earlier work
Source text: (§3) Mitochondrial proteins play pivotal roles in organelle-specific functions such as energy conversion, calcium hemeostasis, ROS generation, and electron transport, [40]. The disturbance of such mitochondrial functions is a critical step towards cell death through the activation of either apoptotic or autophagic pathways, [42]. GRP75 a mitochondrial chaperon is an essential protein for mitochondria biogenesis by refolding and sorting mitochondrial proteins. Elevation of GRP75 is easily observed in various cancer cells, while knockdown of the protein induces mitochondrial dysfunc ...

[8] = system: cytochrome c (PC3 cells); conditions: ref [28]; cited from earlier work
Source text: as §3

[9] = system: PC3 cells; conditions: FITC-conjugated form, prostate cancer cells; ref [28]; cited from earlier work
Source text: In previous reports, we and other groups observed that radiolabeled GnRH-II bound to prostate cancer cells through interaction with an approximately 80-kDa protein whose identity was designated as glucose-regulated protein 75 (GRP75) based on liquid chromatography-electrospray ionization-tandem mass spectrometry, [28], [29]. […] Since GRP75 is found predominantly in mitochondria, the final destination of SN09-2 may not be the cell surface. To explore the subcellular location of the antag ...

[10] = system: caspase-3 (PC3 cells); conditions: ref [28], cited from earlier work
Source text: as §3, with “Next, we examined caspase-3 activation by SN09-2. […] We also investigated caspase-3 cleavage in LNCaP and DU145 cells. […] Immunocytochemistry for actively cleaved caspase- ... || Mitochondrial” for “Mitochondrial”

[11] = system: PC3 xenograft tumor; conditions: cited from earlier work; for growth of tumor formed by implanted PC3 cells: previous studies, ref [27], [28]
Method: PC3 cells were implanted into the flanks of nude mice. After tumor formation, SN09-2 was injected into the mice at different concentrations for 25 consecutive days. […] In the group treated with 0.1 mg SN09-2, tumor volumes were reduced by 27%, compared with the vehicle-treated group (Fig. 7A, B). […] The di ... || Both GnRH-I agonists and antagonists are able to inhibit the growth of cancer cells in sex hormone-regulated tissues including ovarian cancer and prostate cancer, by directly stimulating cell death pathways as well as by decreasing gonadotropin and sex hormone levels, [32], [33]. Because of the sequence similarity between GnRH-I and GnRH-II, GnRH-II and its antagonists are considered to exert similar effects on these types of cancer, although its receptor has not been identified in human and its action mechanisms have not been well elucidated. In some reports, GnRH-II has been shown ...

[12] = system: prostate cancer cells; conditions: cited from earlier work; for displacement of radiolabeled GnRH-II binding: various human prostate cancer cells, ref [27]
Source text: GnRH-II is likely to function on prostate cancer cells by interacting with unknown proteins, based on our previous observation that radiolabeled GnRH-II was able to bind various human prostate cancer cells.

[13] = system: ovarian cancer cells; conditions: cited from earlier work
Source text: GnRH-II is likely to function on prostate cancer cells by interacting with unknown proteins, based on our previous observation that radiolabeled GnRH-II was able to bind various human prostate cancer cells. […] Because of the sequence similarity between GnRH-I and GnRH-II, GnRH-II and its antagonists are considered to exert similar effects on these types of cancer, although its receptor has not been identified in human and its action mechanisms have not been well elucidated. In some reports, GnRH-II has been shown ...

[14] = system: human T cells; conditions: ref [20]; cited from earlier work
Source text: In most vertebrates, the other type of GnRH, called GnRH-II, is identified, which is structurally conserved in evolution from fish to mammals [12]–[14]. GnRH-II is expressed not only in the brain but also in peripheral reproductive and immune tissues. This wide expression pattern may confer a variety of physiological functions on the peptide. Similar to GnRH-I, GnRH-II is able to regulate reproduction in females by stimulating the secretion of LH and FSH [16], [17].

Compound: CC(=O)N[C@H](Cc1ccc2ccccc2c1)C(=O)N[C@H](Cc1ccc(Cl)cc1)C(=O)N[C@H](Cc1cccnc1)C(=O)N[C@@H](CO)C(=O)N[C@@H](Cc1ccccc1)C(=O)N[C@H](CCCCN)C(=O)N[C@@H](Cc1c[nH]c2ccccc12)C(=O)N[C@@H](Cc1ccc(O)cc1)C(=O)N[C@@H](CCCNC(=N)N)C(=O)N[C@H](C)C(N)=O [SN09-2, Ac-D-Nal(2)-D-phe(4Cl)-D-Pal(3)-Ser-Phe-D-Lys-Trp-Tyr-Arg-D-Ala-NH2] (Ac-[d2Nal][dPhe(4-Cl)][d3Pal]SF[dK]WYR[dA]-NH2)
- IC50 [1]: 1.9 µM
- growth inhibition of PC3 cells ([2]; 5% serum, 4 days): 91%
- growth inhibition of PC3 cells ([2]; 10% serum, 4 days): 88%
- growth inhibition of PC3 cells ([2]; higher serum concentrations, 4 days): more than 85%
- growth inhibition of PC3 cells ([2]; low serum concentrations (less than 2% FBS), within 4 days): more than 95%
- liver and kidney histopathology ([3]; after 25 days subcutaneous treatment): no histo-pathological abnormalities
- serum alkaline phosphatase, aspartate aminotransferase, alanine aminotransferase, urea nitrogen, creatinine, total bilirubin ([3]; after 25 days subcutaneous treatment, data not shown): did not differ between vehicle and SN09-2-treated mice
- skin irritation / densely populated cells at the injection site ([3]; mice, several days after subcutaneous injection): no skin irritation or densely populated cells were detected
- edema-like phenotype ([3]; mice, subcutaneous treatment): not observed
- adverse effects to the animal ([3]; xenograft model): without any apparent adverse effects
- solubility in 5% DMA ([4]; 5% N,N′-dimethylacetamide (DMA) formulation): appeared well dissolved
- solubility in DMSO ([4]; DMSO, solvent for in vitro treatment): dissolved well in DMSO
- growth inhibition of DU145 cells [5]: ≈ 50%

Compound: Ac-[d2Nal][dPhe(4-Cl)][d3Pal]SY[dCit]WYP[dA]-NH2 [Trp-1, GnRH-II antagonist of the authors' earlier report]
- IC50 [6]: 0.25 µM
- antagonism of GnRH-II at gmGnRHR-II ([1]; CV-1 cells, SRE-luc reporter, GnRH-II 10 nM, antagonist 6 h, luciferase normalized to β-gal, at least three independent experiments): partial
- PC3 cell growth inhibition, dose response ([2]; different concentrations, 5% serum, 3 days, versus DMSO control): significantly attenuated cell growth in a dose-dependent manner
- autophagic cell death [7]: induces autophagic cell death
- cytochrome c release [8]: does not induce
- mitochondrial accumulation in presence of unlabeled GnRH-II [9]: attenuated by unlabeled GnRH-II
- activation of the apoptotic machinery ([10]; previous results): could not trigger the activation of the apoptotic machinery
- caspase-3 activation [10]: does not induce
- inhibitory activity on tumor volume ([11]; 0.1 mg, PC3 xenograft, quoted comparison, ref [28]): 60%
- growth of tumor formed by implanted PC3 cells [11]: inhibited growth of the tumor

Compound: FITC-conjugated GnRH-II: FITC-conjugated GnRH-II (QHWSHGWYPG; ends and bridges not checked; also: FITC-conjugated, site not given here; UniProt O43555 24-33, looked up)
- mitochondrial accumulation in presence of unlabeled GnRH-II [9]: attenuated by unlabeled GnRH-II

Compound: GnRH-I: gonadotropin-releasing hormone-I synthesized in the hypothalamus
- displacement of radiolabeled GnRH-II binding [12]: not by GnRH-I

Compound: GnRH-II: the other type of GnRH, structurally conserved in evolution from fish to mammals (QHWSHGWYPG; ends and bridges not checked; UniProt O43555 24-33, looked up)
- inhibition of proliferation of prostate cancer cells ([12]; ref [26], [27]): inhibit the proliferation
- displacement of radiolabeled GnRH-II binding [12]: displaced by unlabeled GnRH-II
- inhibition of proliferation of ovarian cancer cells ([13]; ref [26], [27]): inhibit the proliferation
- anti-proliferative effect in ovarian cancer, versus GnRH-I ([13]; ref [33]): stronger anti-proliferative effect than that of GnRH-I
- laminin receptor expression [14]: stimulates laminin receptor expression

Compound: cetrorelix
- growth of tumor formed by implanted PC3 cells [11]: very weak effect on tumor growth
- block of GnRH-II-induced laminin receptor expression [14]: not blocked
